Data from patent publication US5476848A, “14B(R) isomers of novel tetracyclic compounds having anti-allergic and anti-asthmatic activities, and their use” (Sankyo Company, Limited, priority 1989, dated 1995).
Where a name gives a salt, the structure may show the parent alone.

Columns and labels:
[1] = system: Passive Cutaneous Anaphylaxis (PCA); assay: Inhibitory effect on passive cutaneous anaphylaxis (PCA) in rats (Test Example 1); format: in vivo, rat (male SD); details: Rattus norvegicus, po, read-out: Inhibitory rate
Experimental: Male SD rats (5 weeks old) were used as the test animals in groups, each containing 4 animals. The rats were sensitized by intradermal injection of 0.05 ml of the diluted antiserum solution in the dorsal position. 48 hours after this injection, a suspension of the test compound in an aqueous 0.5% w/v tragacanth solution was orally administered to the rats, fasted for one day, and 60 minutes later they were injected in the caudal vein with 5 ml/kg body weight of physiological saline containing 0.4% w/v egg albumin and 1.0% w/v Evans Blue.
The inhibitory rate was calculated by the following equation.
Inhibitory rate (%)=(1-B/A)×100
A: amount of exuded dye in the control group
B: amount of exuded dye in the test group.

[2] = system: Antigen-induced Bronchoconstriction; assay: Effect on antigen-induced bronchoconstriction in sensitized guinea pigs (Test Example 2); format: in vivo, guinea pig (male Hartley); details: Cavia porcellus, po, 60 min before challenge, read-out: Inhibitory rate
Experimental: The test animals used were male guinea pigs of the Hartley strain (weighing about 400 to 500 g). These animals were sensitized according to Morris' method [H. R. Morris; Br. J. Pharmac., 67, 179-184 (1979)]. The guinea pigs were subcutaneously and intraperitoneally injected twice, each time with 25 mg of egg albumin (grade 5, Sigma) at weekly intervals. 7 days after the second of these weekly injections, the animals were fasted for one day and then exposed to an aerosol of egg albumin (10 mg/ml). All of the animals so exposed responded with convulsions, indicating respiratory distress due to airway constriction, within 6 minutes.
60 minutes before the egg albumin challenge, one of the test compounds shown in the following Table 5 was administered orally to each of the animals.

eosinophil accumulation = assay: Inhibitory effect on antigen induced eosinophil accumulation (Test Example 4); format: in vivo, guinea pig (male Hartley); details: po, 1 hr before antigen challenge, BALF 24 hr after; for inhibition at 0.1 mg/kg: Cavia porcellus, Eosinophil; for Inhibitory effect (%) on accumulation of eosinophil: 0.1 mg/kg;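 on all read-outs here: oral dose 0.1 mg/kg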
Experimental: Male Hartley guinea pigs weighing approximately 400 g were sensitized with ovalbumin by the method described by Engineer et al. (Engineer, D. M. et al., J. Pharmacol., 62, 61-66 (1978)), and the number of eosinophils infiltrating into the bronchoalveolar space due to antigen challenge was examined.
Briefly, the animals were exposed to the antigen (ovalbumin) for 6 min. At 24 hr. after antigen challenge, the guinea pigs were anesthetized with pentobarbital (30 mg/kg, i.p.). The trachea was cannulated by a disposable intravenous catheter, and the airway lumen (especially in the right posterior lobe) was washed with 0.9% saline (10 ml/kg) kept at 37° C. The bronchoalveolar lavage fluid (BALF) from each animal was centrifuged (150 g for 10 min at 4° C.). After removing the supernatant, the cell pellet was resuspended in HBSS (Hank's balanced solution) and a total cell count was performed using a standard hemocytometer. Differential cell counts were done on smears fixed in methanol and stained with Wright-Giemsa solution, and by light microscopy under oil immersion (×1000). The proportion of eosinophil population was expressed as a percentage of total cells, and this ratio together with the total cell count was used to calculate the total number of eosinophils. The percent inhibition of the test compounds which was administered 1 hr before antigen challenge, was calculated as follows:
Percent inhibition=[1-(C-A)/(B-A)]×100
A: negative control: mean value of cell counts in BALF from the animals with inhaled saline
B: positive control: mean value of cell counts in BALF from the animals 24 h after antigen challenge
C: cell counts of BALF for the animals pretreated with a test compound 24 h after antigen challenge

eosinophil chemotaxis = assay: Inhibitory effect of eosinophil chemotaxis to zymosan-activated serum (Test Example 4); format: cell-based, guinea pig; details: for inhibition at 0.1 µg/mL: Cavia porcellus, Eosinophil; for inhibition at 0.1 µg/mL / Inhibitory effect (%) on chemotaxis of eosinophil: 0.1 μg/ml, ZAS; for potency of the R-isomer relative to the racemate: eosinophil table, R-isomer vs racemate
Text: Eosinophils were harvested from the peritoneal cavity of polymyxin B-treated guinea pigs (body weight, approx. 400 g) according to the method described by Pincus (Pincus, S. H. et al.: Blood, 52, 127-134 (1978)). The eosinophils were separated and purified by Ficoll-paque (Pharmacia) density gradient centrifugation. Then, the eosinophil chemotaxis to zymosan-activated serum (ZAS) was investigated by a modification of the Boyden micropore filter technique (Gosset, P. et al.: Clin. Exp. Immunol., 65, 654-663 (1986)). Briefly, the assay was carried out in a 48-well microchemotaxis assembly (Neuroprobe; Cabin John, Md., U.S.A.). Cell suspensions were adjusted to 2.5×10^5 /50 μl, and placed in the upper chamber separated from the chemoattractant (ZAS) solution in the lower chamber by a 3 μm pore size polycarbonate membrane filter (Nucleopore Co., Pleasanton, U.S.A.). The cells were incubated for 10 min at 37° C. with the test compounds, prior to their addition to the chemotaxis chamber. Migration was carried out at 37° C. in humidified air with 5% CO2 for 2 h. After the incubation, the migrated eosinophils in the lower Chamber were counted by a hemocytometer.
The percentage inhibition obtained with the test compound was calculated by comparison to the positive control (migration of non-treated cells in response to the ZAS), according to the formula:
Percent inhibition=[1-(A/B)]×100
A: (migration with a test compound)-(spontaneous migration)
B: (positive control migration)-(spontaneous migration)

Work on `CCOC(=O)COCCN1CCN2c3ccccc3Cc3ccccc3C2C1` (stereo not shown) [Example 1] yielded an inhibition at 0.2 mg/kg ([1]; 0.2 mg/kg) of 56%, an inhibition at 3.1 mg/kg [1] of 65% and an inhibition at 0.025 mg/kg [2] of 20%. For the same compound, the inhibition at 0.1 mg/kg [2] was 50%.

Compound `CN(C)C(=O)COCCN1CCN2c3ccccc3Cc3ccccc3C2C1` (stereo not drawn) [Example 27, α-[2-(1,2,3,4,10,14b-Hexahydrodibenzo[c,f]pyrazino[1,2-a]azepin-2-yl)ethoxy]-N,N-dimethylacetamide] has an inhibition at 3.1 mg/kg [1] of 69%.

Work on `OCCCN1CCN2c3ccccc3Cc3ccccc3C2C1` (stereo not shown) [Example 16, 3-(1,2,3,4,10,14b-Hexahydrodibenzo[c,f]pyrazino[1,2-a]azepin-2-yl)propanol] yielded an inhibition at 0.8 mg/kg [1] of 48%, an inhibition at 3.1 mg/kg [1] of 63% and an inhibition at 0.1 mg/kg [2] of 60%. It also gave an inhibition at 0.4 mg/kg [2] of 100%.

In the case of `CCOC(=O)CCCCCN1CCN2c3ccccc3Cc3ccccc3[C@H]2C1` [21 HCl S-isomer], the inhibition at 0.1 mg/kg (eosinophil accumulation) is reported as 13% and the inhibition at 0.1 µg/mL (eosinophil chemotaxis) is reported as 9%.

For `CCCN(CCC)C(=O)COCCN1CCN2c3ccccc3Cc3ccccc3C2C1` (stereo not drawn) [Example 31, α-[2-(1,2,3,4,10,14b-Hexahydrodibenzo[c,f]pyrazino[1,2-a]azepin-2-yl)ethoxy]-N,N-dipropylacetamide], the inhibition at 0.8 mg/kg [1] was 32% and the inhibition at 3.1 mg/kg [1] was 76%.

For `O=C(O)COCCN1CCN2c3ccccc3Cc3ccccc3[C@@H]2C1` [Example 65, (R)-2-(1,2,3,4,10,14b-hexahydrodibenzo[c,f]pyrazino[1,2-a]azepin-2-yl)ethoxyacetic acid monohydrate], the inhibition at 0.05 mg/kg [1] was 45%, the inhibition at 0.4 mg/kg ([1]; 0.4 mg/kg) was 58% and the inhibition at 0.1 mg/kg [2] was 60%.

With `OCCOCCOCCN1CCN2c3ccccc3Cc3ccccc3C2C1` (stereo not shown) [Example 7] the inhibition at 0.8 mg/kg [1] was 50%, the inhibition at 3.1 mg/kg [1] was 57% and the inhibition at 12.5 mg/kg ([1]; 12.5 mg/kg) was 72%. For the same compound, the inhibition at 0.4 mg/kg [2] was 100%.

`O=C(O)CCCN1CCN2c3ccccc3Cc3ccccc3[C@H]2C1` [22 HCl S-isomer] was tested, and the inhibition at 0.1 mg/kg (eosinophil accumulation) was 47% and the inhibition at 0.1 µg/mL (eosinophil chemotaxis) was 5%.

`CCOC(=O)COCCN1CCN2c3ccc(Cl)cc3Cc3ccccc3C2C1` (stereo not shown) [Example 4] was tested, and the inhibition at 3.1 mg/kg [1] was 63%.

Work on `O=C(O)COCCN1CCN2c3ccc(Cl)cc3Cc3ccccc3C2C1` (stereo not shown) [Example 9] yielded an inhibition at 3.1 mg/kg [1] of 63%.

`O=C(O)CCCCCN1CCN2c3ccccc3Cc3ccccc3C2C1` (racemic) [24 HCl racemate] was tested, and the inhibition at 0.1 mg/kg (eosinophil accumulation) was 43% and the inhibition at 0.1 µg/mL (eosinophil chemotaxis) was 25%.

With `CCOC(=O)CCCN1CCN2c3ccccc3Cc3ccccc3C2C1` (racemic) [19 HCl racemate] the “Inhibitory effect (%) on accumulation of eosinophil” value (eosinophil accumulation) was 48% and the “Inhibitory effect (%) on chemotaxis of eosinophil” value (eosinophil chemotaxis) was 5%.

With `CCOC(=O)CCCN1CCN2c3ccccc3Cc3ccccc3[C@H]2C1` [19 fumarate S-isomer] the inhibition at 0.1 mg/kg (eosinophil accumulation) was 32% and the “Inhibitory effect (%) on chemotaxis of eosinophil” value (eosinophil chemotaxis) was 0%.

Compound `O=C(O)COCCN1CCN2c3ccccc3Cc3ccccc3C2C1` (stereo not shown) [Example 2] has an inhibition at 0.05 mg/kg [1] of 62%, an inhibition at 0.8 mg/kg [1] of 74% and an inhibition at 0.025 mg/kg [2] of 20%. For the same compound, the inhibition at 0.1 mg/kg [2] was 80%.

In the case of `O=C(O)CCCCCN1CCN2c3ccccc3Cc3ccccc3C2C1` (racemic) [Example 24, 6-(1,2,3,4,10,14b-Hexahydrodibenzo[c,f]pyrazino[1,2-a]azepin-2-yl)hexanoic acid], the inhibition at 0.05 mg/kg [1] is reported as 46%, the inhibition at 3.1 mg/kg [1] is reported as 74% and the inhibition at 0.1 mg/kg [2] is reported as 80%. The inhibition at 0.4 mg/kg [2] was 100%.

In the case of `O=C(O)COCCN1CCN2c3ccc(Br)cc3Cc3ccccc3C2C1` (stereo not shown) [Example 10], the inhibition at 3.1 mg/kg [1] is reported as 53%.

`O=C(O)CCCCCN1CCN2c3ccccc3Cc3ccccc3[C@H]2C1` [24 HCl S-isomer] gave an inhibition at 0.1 mg/kg (eosinophil accumulation) of 2% and an inhibition at 0.1 µg/mL (eosinophil chemotaxis) of 0%.

Compound `COC(=O)COCCN1CCN2c3ccc(Br)cc3Cc3ccccc3C2C1` (stereo not shown) [Example 5, Methyl 2-(8-bromo-1,2,3,4,10,14b-hexahydrodibenzo[c,f]pyrazino[1,2-a]azepin-2-yl)ethoxyacetate] has an inhibition at 0.8 mg/kg [1] of 23% and an inhibition at 3.1 mg/kg [1] of 67%.

`CCOC(=O)CCCCCN1CCN2c3ccccc3Cc3ccccc3C2C1` (racemic) [21 HCl racemate] showed an inhibition at 0.1 mg/kg (eosinophil accumulation) of 37% and an inhibition at 0.1 µg/mL (eosinophil chemotaxis) of 23%.

With `O=C(O)CCCN1CCN2c3ccccc3Cc3ccccc3C2C1` (racemic) [22 HCl racemate] the “Inhibitory effect (%) on accumulation of eosinophil” value (eosinophil accumulation) was 31% and the “Inhibitory effect (%) on chemotaxis of eosinophil” value (eosinophil chemotaxis) was 6%.

`CCOC(=O)CCCCCN1CCN2c3ccccc3Cc3ccccc3[C@@H]2C1` [21 HCl R-isomer] was tested, and the inhibition at 0.1 mg/kg (eosinophil accumulation) was 80%, the inhibition at 0.1 µg/mL (eosinophil chemotaxis) was 50% and the “potency of the R-isomer relative to the racemate” value (eosinophil chemotaxis) was “about double the potency”.

With `CCOC(=O)CCCN1CCN2c3ccccc3Cc3ccccc3[C@H]2C1` [19 HCl S-isomer] the “Inhibitory effect (%) on accumulation of eosinophil” value (eosinophil accumulation) was 41% and the “Inhibitory effect (%) on chemotaxis of eosinophil” value (eosinophil chemotaxis) was 1%.

For `O=C(O)CCCN1CCN2c3ccccc3Cc3ccccc3C2C1` (racemic) [22 free racemate], the “Inhibitory effect (%) on accumulation of eosinophil” value (eosinophil accumulation) was 3% and the inhibition at 0.1 µg/mL (eosinophil chemotaxis) was 9%.

`O=C(O)CN1CCN2c3ccccc3Cn3cccc3C2C1` (stereo not shown) [Prior art compound G, Sodium (1,3,4,14btetrahydro-2H,10H-pyrazino[1,2a]pyrrolo[2,1c][1,4]benzodiazepin-yl)acetate, reference compound] showed an inhibition at 3.1 mg/kg [1] of 28%.

`CCOC(=O)CCCN1CCN2c3ccccc3Cc3ccccc3[C@@H]2C1` [19 HCl R-isomer] was tested, and the “Inhibitory effect (%) on accumulation of eosinophil” value (eosinophil accumulation) was 58% and the “Inhibitory effect (%) on chemotaxis of eosinophil” value (eosinophil chemotaxis) was 43%.

For `CCOC(=O)CCCN1CCN2c3ccccc3Cc3ccccc3C2C1` (racemic) [19 fumarate racemate], the “Inhibitory effect (%) on accumulation of eosinophil” value (eosinophil accumulation) was 24% and the inhibition at 0.1 µg/mL (eosinophil chemotaxis) was 3%.

Work on `O=C(O)COCCN1CCN2c3ncccc3Cc3ccccc3C2C1` (stereo not shown) [Example 11, 2-(1,2,3,4,10,14b-Hexahydrobenzo[c]pyrazino[1,2-a]pyrido[5,6-c]azepin-2-yl)ethoxyacetic acid] yielded an inhibition at 0.8 mg/kg [1] of 49% and an inhibition at 3.1 mg/kg [1] of 60%.

With `OCCCCCCN1CCN2c3ccccc3Cc3ccccc3C2C1` (stereo not shown) [Example 18, 6-(1,2,3,4,10,14b-Hexahydrodibenzo[c,f]pyrazino[1,2-a]azepin-2-yl)hexanol] the inhibition at 0.4 mg/kg [2] was 100%.

`CCOC(=O)CCCN1CCN2c3ccccc3Cc3ccccc3[C@@H]2C1` [19 fumarate R-isomer] gave an inhibition at 0.1 mg/kg (eosinophil accumulation) of 62% and an inhibition at 0.1 µg/mL (eosinophil chemotaxis) of 55%.

With `O=C(O)CCCCCN1CCN2c3ccccc3Cc3ccccc3[C@@H]2C1` [24 HCl R-isomer] the inhibition at 0.1 mg/kg (eosinophil accumulation) was 62%, the inhibition at 0.1 µg/mL (eosinophil chemotaxis) was 47% and the “potency of the R-isomer relative to the racemate” value (eosinophil chemotaxis) was “about double the potency”.
